This is an account of results in US11286243B2 (GLOBAL BLOOD THERAPEUTICS, INC., priority 2018, dated 2022).

SMILES strings stand for the structures. Bounds are passed on as bounds.

The target of the experiment is T1, human ferroportin (Homo sapiens, UniProt Q9NP59).
T1 construct: luciferase reporter (probably NanoLuc: read with the Nano-Glo Luciferase Assay System); expressed in transfected cells; host or cells: CHO cells, stably transfected, doxycycline-inducible expression
T1 sequence (Q9NP59 1-571): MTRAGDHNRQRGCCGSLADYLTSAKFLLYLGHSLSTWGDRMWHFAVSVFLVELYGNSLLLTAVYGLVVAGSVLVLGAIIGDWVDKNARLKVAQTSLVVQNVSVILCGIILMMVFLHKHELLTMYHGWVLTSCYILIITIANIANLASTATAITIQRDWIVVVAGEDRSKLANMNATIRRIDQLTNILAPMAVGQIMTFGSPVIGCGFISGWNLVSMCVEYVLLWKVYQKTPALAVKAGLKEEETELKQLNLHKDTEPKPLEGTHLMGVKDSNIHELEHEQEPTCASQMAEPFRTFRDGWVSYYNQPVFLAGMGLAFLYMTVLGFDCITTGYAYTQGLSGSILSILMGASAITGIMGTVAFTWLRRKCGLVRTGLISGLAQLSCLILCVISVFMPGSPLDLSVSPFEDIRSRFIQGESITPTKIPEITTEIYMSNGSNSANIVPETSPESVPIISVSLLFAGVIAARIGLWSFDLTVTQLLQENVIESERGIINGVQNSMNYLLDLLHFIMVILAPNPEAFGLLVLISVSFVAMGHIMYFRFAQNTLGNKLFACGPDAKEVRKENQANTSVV
Put plainly: In-vitro ferroportin internalization assay (luciferase reporter). It is filed as cell-based. As to conditions: average pEC50; stably-transfected CHO cell line expressing human ferroportin tagged to a luciferase reporter; 6 h incubation with test compounds. As for the experimental part: The protocol for this assay is generally as described in WO2018/128828, incorporated herein by reference in its entirety. Functional internalization of ferroportin protein was measured using a stably-transfected CHO cell line expressing the human ferroportin tagged to a luciferase reporter. Cells were plated for 24 h in the presence of ferric ammonium citrate (FAC). Ferroportin protein expression was induced with doxycycline for 24 h. The next day, the compounds were added. Test compounds were dissolved in DMSO. Cells were incubated with the test compounds for 6 h, and subsequently luciferase activity was measured using the Nano-Glo Luciferase Assay System and Glomax (Promega, Madison, Wis.).
The average pEC50 was determined for the test compounds.
A general note: A reporter such as luciferase makes a cellular process visible.
By pEC50 is commonly meant the EC50 on a negative log10 scale, so that one unit is a factor of ten. Read a low pEC50 as a high EC50. `C[C@H](CNCCc1nc2c(NCc3ncccc3F)ncnc2s1)c1nc2ccccc2[nH]1` [Compound 52, 2-(2-{[(2R)-2-(1H-1,3-benzodiazol-2-yl)propyl]amino}ethyl)-N-[(3-fluoropyridin-2-yl)methyl]-[1,3]thiazolo[5,4-d]pyrimidin-7-amine] registered a pEC50 of 6.6.
`C[C@@H](CNCCc1nc2c(NCc3ncccc3F)ncnc2s1)c1nc2ccccc2[nH]1` [Compound 53, 2-(2-{[(2S)-2-(1H-1,3-benzodiazol-2-yl)propyl]amino}ethyl)-N-[(3-fluoropyridin-2-yl)methyl]-[1,3]thiazolo[5,4-d]pyrimidin-7-amine] gave a pEC50 of 7.3.
With `Oc1cccc(CNCCc2nc3c(NCc4ncccc4F)nccc3o2)c1` [Compound 54, 3-({[2-(4-{[(3-fluoropyridin-2-yl)methyl]amino}-[1,3]oxazolo[4,5-c]pyridin-2-yl)ethyl]amino}methyl)phenol] the figure was 5.1; with `Cc1nc(CCNCCc2nc3c(NCc4ncccc4F)ncnc3s2)[nH]c1C` [Compound 55, 2-(2-{[2-(4,5-dimethyl-1H-imidazol-2-yl)ethyl]amino}ethyl)-N-[(3-fluoropyridin-2-yl)methyl]-[1,3]thiazolo[5,4-d]pyrimidin-7-amine], 7.6.
With `Cc1cnc(CCNCCc2nc3c(NCc4ncccc4F)nccc3o2)[nH]1` [Compound 56, N-[(3-fluoropyridin-2-yl)methyl]-2-(2-{[2-(5-methyl-1H-imidazol-2-yl)ethyl]amino}ethyl)-[1,3]oxazolo[4,5-c]pyridin-4-amine] the figure was 6.7; with `Fc1cccnc1CNc1nccc2oc(CCNCCc3ncc(C(F)(F)F)[nH]3)nc12` [Compound 57, N-[(3-fluoropyridin-2-yl)methyl]-2-[2-({2-[5-(trifluoromethyl)-1H-imidazol-2-yl]ethyl}amino)ethyl]-[1,3]oxazolo[4,5-c]pyridin-4-amine], 5.4.
Under `Fc1cccnc1CNc1nccc2oc(CCNCCc3ncc[nH]3)nc12` [Compound 58] stands 5.7.
For `Oc1cc2oc(CCNCCc3nc4ccccc4[nH]3)nc2c(NCc2ncccc2F)n1` [Compound 59, 2-(2-{[2-(1H-1,3-benzodiazol-2-yl)ethyl]amino}ethyl)-4-{[(3-fluoropyridin-2-yl)methyl]amino}-[1,3]oxazolo[4,5-c]pyridin-6-ol], the negative-log EC50 (pEC50) is on record as 6.2.
With `Fc1cccnc1CNc1ncnc2sc(CCNCCc3ncc(-c4cccnc4)[nH]3)nc12` [Compound 60, N-[(3-fluoropyridin-2-yl)methyl]-2-[2-({2-[5-(pyridin-3-yl)-1H-imidazol-2-yl]ethyl}amino)ethyl]-[1,3]thiazolo[5,4-d]pyrimidin-7-amine] the figure was 5.8; with `CC(CNCCc1nc2c(NCc3ncccc3F)nccc2o1)c1nc2ccccc2[nH]1` (stereo not drawn) [Compound 61, 2-(2-{[2-(1H-1,3-benzodiazol-2-yl)propyl]amino}ethyl)-N-[(3-fluoropyridin-2-yl)methyl]-[1,3]oxazolo[4,5-c]pyridin-4-amine], 6.9.
With `Fc1cccnc1CNc1nccc2oc(CCNCCc3ncc(Cc4ccccc4)[nH]3)nc12` [Compound 62] the figure was 7.7; with `Fc1cccnc1CNc1nccc2oc(CCNCCc3ncc(CC4CC4)[nH]3)nc12` [Compound 63, 2-[2-({2-[5-(cyclopropylmethyl)-1H-imidazol-2-yl]ethyl}amino)ethyl]-N-[(3-fluoropyridin-2-yl)methyl]-[1,3]oxazolo[4,5-c]pyridin-4-amine], 5.1; with `Cc1nc(CCNCCc2nc3c(NCc4ncccc4F)ncnc3s2)[nH]c1-c1ccccc1` [Compound 64, N-[(3-fluoropyridin-2-yl)methyl]-2-(2-{[2-(4-methyl-5-phenyl-1H-imidazol-2-yl)ethyl]amino}ethyl)-[1,3]thiazolo[5,4-d]pyrimidin-7-amine], 7.
Under `Fc1cccnc1CNc1ncnc2sc(CCNCCc3ncc(-c4ccccn4)[nH]3)nc12` [Compound 65, N-[(3-fluoropyridin-2-yl)methyl]-2-[2-({2-[5-(pyridin-2-yl)-1H-imidazol-2-yl]ethyl}amino)ethyl]-[1,3]thiazolo[5,4-d]pyrimidin-7-amine] stands 6.2; under `Fc1cccc(-c2cnc(CCNCCc3nc4c(NCc5ncccc5F)ncnc4s3)[nH]2)c1` [Compound 67, 2-[2-({2-[5-(3-fluorophenyl)-1H-imidazol-2-yl]ethyl}amino)ethyl]-N-[(3-fluoropyridin-2-yl)methyl]-[1,3]thiazolo[5,4-d]pyrimidin-7-amine], 6.2.
`Fc1ccc(-c2cnc(CCNCCc3nc4c(NCc5ncccc5F)ncnc4s3)[nH]2)cc1` [Compound 68, 2-[2-({2-[5-(4-fluorophenyl)-1H-imidazol-2-yl]ethyl}amino)ethyl]-N-[(3-fluoropyridin-2-yl)methyl]-[1,3]thiazolo[5,4-d]pyrimidin-7-amine] returned a negative logarithm of the EC50 (pEC50) of 5.8.
With `Cc1ncc(-c2cc(CNCCc3nc4c(NCc5ncccc5F)ncnc4s3)c(Cl)s2)[nH]1` [Compound 69, 2-[2-({[2-chloro-5-(2-methyl-1H-imidazol-5-yl)thiophen-3-yl]methyl}amino)ethyl]-N-[(3-fluoropyridin-2-yl)methyl]-[1,3]thiazolo[5,4-d]pyrimidin-7-amine] the figure was 5.2.
With `Cc1nc(-c2ccc(Cl)s2)c(CNCCc2nc3c(NCc4ncccc4F)ncnc3s2)[nH]1` [Compound 70, 2-[2-({[4-(5-chlorothiophen-2-yl)-2-methyl-1H-imidazol-5-yl]methyl}amino)ethyl]-N-[(3-fluoropyridin-2-yl)methyl]-[1,3]thiazolo[5,4-d]pyrimidin-7-amine] the figure was 5.6.
With `Fc1cccnc1CNc1ncnc2sc(CC3CCCC(Cc4nc5ccccc5[nH]4)N3)nc12` (stereo not drawn) [Compound 71, 2-({6-[(1H-1,3-benzodiazol-2-yl)methyl]piperidin-2-yl}methyl)-N-[(3-fluoropyridin-2-yl)methyl]-[1,3]thiazolo[5,4-d]pyrimidin-7-amine] the figure was 5.2.
`Fc1cccnc1CNc1ncnc2sc(CCNCCc3ncc(-c4ccc(Cl)s4)[nH]3)nc12` [Compound 72, 2-[2-({2-[5-(5-chlorothiophen-2-yl)-1H-imidazol-2-yl]ethyl}amino)ethyl]-N-[(3-fluoropyridin-2-yl)methyl]-[1,3]thiazolo[5,4-d]pyrimidin-7-amine]: the pEC50 worked out at 6.4.
With `Cc1nc(CCNCCc2nc3c(NCc4ncccc4F)nccc3s2)[nH]c1C` [Compound 73, 2-(2-{[2-(4,5-dimethyl-1H-imidazol-2-yl)ethyl]amino}ethyl)-N-[(3-fluoropyridin-2-yl)methyl]-[1,3]thiazolo[4,5-c]pyridin-4-amine] the figure was 7.6; with `Fc1cccnc1CNc1nccc2oc([C@H](F)CNCCc3nc4ccccc4[nH]3)nc12` [Compound 74, 2-[(1R)-2-{[2-(1H-1,3-benzodiazol-2-yl)ethyl]amino}-1-fluoroethyl]-N-[(3-fluoropyridin-2-yl)methyl]-[1,3]oxazolo[4,5-c]pyridin-4-amine], 6.9.
The compound `Fc1cccnc1CNc1nccc2oc([C@@H](F)CNCCc3nc4ccccc4[nH]3)nc12` [Compound 75, 2-[(1 S)-2-{[2-(1H-1,3-benzodiazol-2-yl)ethyl]amino}-1-fluoroethyl]-N-[(3-fluoropyridin-2-yl)methyl]-[1,3]oxazolo[4,5-c]pyridin-4-amine] yielded a pEC50 of 7.1.
On to `Cc1nc(CCNCCc2nc3c(NCc4ncccc4F)nc(O)nc3s2)[nH]c1C` [Compound 76, 2-(2-{[2-(4,5-dimethyl-1H-imidazol-2-yl)ethyl]amino}ethyl)-7-{[(3-fluoropyridin-2-yl)methyl]amino}-[1,3]thiazolo[5,4-d]pyrimidin-5-ol], for which the pEC50 came out at 8.1.
Under `Fc1cccnc1CNc1ncnc2sc([C@H](F)CNCCc3nc4ccccc4[nH]3)nc12` [Compound 77, 2-[(1R)-2-{[2-(1H-1,3-benzodiazol-2-yl)ethyl]amino}-1-fluoroethyl]-N-[(3-fluoropyridin-2-yl)methyl]-[1,3]thiazolo[5,4-d]pyrimidin-7-amine] stands 7.8; under `Cc1nc(Cc2ccccc2)c(CNCCc2nc3c(NCc4ncccc4F)nccc3o2)[nH]1` [Compound 78, 2-(2-{[(4-benzyl-2-methyl-1H-imidazol-5-yl)methyl]amino}ethyl)-N-[(3-fluoropyridin-2-yl)methyl]-[1,3]oxazolo[4,5-c]pyridin-4-amine], less than 5.
`Fc1cccnc1CNc1ncnc2sc(CCNCCc3ncc(-c4ccncc4)[nH]3)nc12` [Compound 79, N-[(3-fluoropyridin-2-yl)methyl]-2-[2-({2-[5-(pyridin-4-yl)-1H-imidazol-2-yl]ethyl}amino)ethyl]-[1,3]thiazolo[5,4-d]pyrimidin-7-amine] returned a pEC50 of less than 5.
